Test results as given in patent US20180028520A1, “METHODS AND PHARMACEUTICAL COMPOSITIONS FOR TREATMENT OF AMYOTROPHIC LATERAL SCLEROSIS” (priority 2014, published 2018).

Legend:
[1] = tested on: brain slices derived from a mouse model of tauopathy; conditions: inhibition of PLDs; cited from earlier work
ALS iPS-MNs = assay: AIS (axon initial segment) length by ankyrin G immunostaining; type: cell-based, human; conditions: data not shown

SMILES | effect on insoluble tau aggregates [1] | effect on shortening of the AIS (ALS iPS-MNs)
O=C(NCCN1CCC(n2c(=O)[nH]c3ccccc32)CC1)c1cc2cc(F)ccc2[nH]1 [FIPI, 5-fluoro-2-indolyl des-chlorohalopemide] | increased insoluble tau aggregates | 
C=C(C)[C@H]1CN[C@H](C(=O)O)[C@H]1CC(=O)O [kainate, kainic acid] |  | further exacerbated
